Laboratory results: ChEMBL document CHEMBL1152573, “Synthesis and glycogen phosphorylase inhibitory activity of N-(beta-D-glucopyranosyl)amides possessing 1,4-benzodioxane moiety” (Bioorg Med Chem, 2009)

How the values were obtained:
[1] = target: T1, Glycogen phosphorylase, muscle form (Oryctolagus cuniculus, UniProt P00489); assay: Inhibition of rabbit muscle glycogen phosphorylase b by cheng-prusoff equation
T1 sequence (P00489 whole entry): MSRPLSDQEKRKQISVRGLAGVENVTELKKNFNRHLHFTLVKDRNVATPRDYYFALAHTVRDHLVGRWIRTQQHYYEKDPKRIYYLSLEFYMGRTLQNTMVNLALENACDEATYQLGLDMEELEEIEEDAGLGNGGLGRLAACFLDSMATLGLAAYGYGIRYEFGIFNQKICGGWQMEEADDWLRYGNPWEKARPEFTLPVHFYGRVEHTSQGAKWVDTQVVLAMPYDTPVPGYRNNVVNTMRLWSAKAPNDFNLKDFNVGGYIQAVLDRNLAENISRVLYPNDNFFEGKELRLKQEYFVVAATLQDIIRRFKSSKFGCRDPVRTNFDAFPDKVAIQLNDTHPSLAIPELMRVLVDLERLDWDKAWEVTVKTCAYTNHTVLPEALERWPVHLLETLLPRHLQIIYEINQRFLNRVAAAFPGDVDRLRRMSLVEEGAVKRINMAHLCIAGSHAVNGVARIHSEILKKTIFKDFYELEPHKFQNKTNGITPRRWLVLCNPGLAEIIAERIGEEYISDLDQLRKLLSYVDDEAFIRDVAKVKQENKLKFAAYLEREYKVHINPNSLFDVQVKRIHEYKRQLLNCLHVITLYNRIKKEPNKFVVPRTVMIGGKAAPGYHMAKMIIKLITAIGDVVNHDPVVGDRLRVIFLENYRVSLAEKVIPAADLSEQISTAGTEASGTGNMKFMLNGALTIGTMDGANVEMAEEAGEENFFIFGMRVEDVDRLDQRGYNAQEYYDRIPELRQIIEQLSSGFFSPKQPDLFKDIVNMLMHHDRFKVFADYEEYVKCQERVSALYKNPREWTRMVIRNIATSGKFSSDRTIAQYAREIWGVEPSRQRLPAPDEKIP

[2] = target: T1, Glycogen phosphorylase, muscle form; assay: Inhibition of rabbit muscle glycogen phosphorylase b

Compound	Ki [1] [µM]	IC50 [2] [µM]
O=C(N[C@@H]1O[C@H](CO)[C@@H](O)[C@H](O)[C@H]1O)c1ccc2c(c1)OCCO2	252	630
O=C(N[C@@H]1O[C@H](CO)[C@@H](O)[C@H](O)[C@H]1O)C1=COc2ccccc2O1	85	125
COc1cc(C(=O)N[C@@H]2O[C@H](CO)[C@@H](O)[C@H](O)[C@H]2O)cc2c1OCCO2	232	580
O=C(N[C@@H]1O[C@H](CO)[C@@H](O)[C@H](O)[C@H]1O)c1cc(Br)c2c(c1)OCCO2	268	670

Further lines, results first:

Ki [1] [µM]	IC50 [2] [µM]	Compound
120	300	O=C(N[C@@H]1O[C@H](CO)[C@@H](O)[C@H](O)[C@H]1O)[C@@H]1COc2ccccc2O1
128	320	O=C(N[C@@H]1O[C@H](CO)[C@@H](O)[C@H](O)[C@H]1O)[C@H]1COc2ccccc2O1
